Experimental data reported in US6492128B1, “Drug screen targeting lipoprotein-membrane anchorage” (Ramot University Authority for Applied Research & …, priority 1997, dated 2002).

What was measured:
EJ cells = assay: Inhibition of EJ cells growth; format: cell-based, rat
[1] = biological target: T1, oncogenic Ras in isolated EJ cell membranes (Homo sapiens, UniProt P01112, G12V); assay: Cell-free assay: dislodging of Ras from isolated EJ cell membranes; format: biochemical, rat; details: for Dislodging of Ras (% of control) in a cell free system (10 μM drug): isolated EJ cell membranes, Ras in pellet; for dislodging of Ras from isolated membrane: 10 μM
T1 construct: expressed in transfected cells; host or cells: Rat1 fibroblasts transformed with Ha-Ras (EJ cells)
Description: The cell-free assay is utilized in these next experiments; i.e. the effect of FTS on Ras in isolated membranes was investigated. Briefly, we used EJ cell membranes (total particulate fraction) prepared in homogenization buffer (10 mM Tris-HCl, pH 8.5, 0.32 M sucrose) with protease inhibitors. The membranes were stored in aliquot at −70° C. and thawed prior to use. In a standard assay, membranes containing 15 μg of protein are incubated in a total volume of 100 μl of homogenization buffer with or without drug for 60 min at 37° C. The drugs are prepared freshly in 100% DMSO, and diluted with 50 mM Tris-HCl pH 8.5 to yield 5× drug concentration in 10% DMSO. It is important to prepare these solutions at room temperature, otherwise the drugs may precipitate. The drug solutions (20 μl) are pipetted into the assay tubes, the membrane/buffer mixtures (80 μl) are quickly added, the tubes are gently mixed, and the tubes are transferred to a 37° C. shaking water bath. The reactions are stopped by addition of 900 μl of cold homogenization buffer (without sucrose) containing 10 μg BSA. Following a 5 min incubation at room temperature, the membranes are pelleted by centrifugation in a benchtop microfuge (14,000 rpm). The supernatants are removed and the pellets are subjected to mini-SDS-PAGE followed by Immunoblotting (pan anti-Ras antibodies) and ECL assays. These assays are detailed infra. It is considered preferable to perform the reactions at 25-37° C. and to use relatively small amounts of membrane protein in the assay. Another preference is to dilute the membranes in a solution containing BSA at the end of the reaction period.

[2] = test system: total oncogenic Ras in EJ cells; assay: Total cellular Ras in EJ cells (immunoblot of total homogenate); format: cell-based, rat; details: 15 hours, total cell homogenate; read-out: EC50 for decrease in the total amount of Ras in EJ cells
Description: In experiments where the total amount of Ras was estimated, the cells were homogenized as detailed above and samples of the total cell-homogenate (15 μg protein) were loaded onto the gel. For immunoblotting, we have also used the pan-Ras Ab (Calbiochem) at a 1:2000 dilution, and anti-mouse IgG-HRP at a 1:7500 dilution. To develop, the blots were exposed to ECL. The same immunoblotting procedure was also used in the cell-free system experiments. If Ras is degraded after it is dislodged, total cellular Ras should fall after FTS treatment. To investigate this, EJ cells were incubated for 15 hours, with various concentrations of FTS as detailed in FIG. 3, supra, then homogenized and total cell Ras measured by immunoblot assay. FTS caused a dose dependent decrease in the total amount of Ras in treated EJ cells. Densitometric analysis of data, such as that of FIG. 5A, is presented in FIG. 5B as the mean percent of control of 3 experiments. The EC5O was 15 μM (FIG. 5B), which is similar to that determined for the effect of FTS on particulate Ras.

[3] = test system: v-raf or T-antigen transformed cells; details: cited from earlier work
[4] = biological target: T2, oncogenic Ras in EJ cells (Homo sapiens, UniProt P01112, G12V); assay: Dislodging of Ras from membranes in intact EJ cells (particulate/cytosolic fractions, immunoblot); format: cell-based, rat
T2 construct: expressed in transfected cells; host or cells: Rat1 fibroblasts transformed with Ha-Ras (EJ cells)
Description: Ha-Ras transformed Rat1 cells (EJ cells) were plated at a density of 4×10^6 cells/10 cm dish. After 3 hr the cells were treated for 15 hr (dose response) or for 2, 6, 12, or 24 hr (time course) with FTS (0-50 μM, dose response) or (25 μM, time course) or (0.1% DMSO, control). The cells were then detached from the dishes and washed in phosphate-buffered saline (PBS). All the subsequent procedures were carried out at 4° C. The cell pellets were homogenized in […] of homogenization buffer 20 mM Tris-HCl, pH=7.6) leupeptine (5 μg/ml), pepstatine (5 μg/ml), benzamidine (1 μM), phenylmethyl-sulphonyl fluoride (1 mM), aprotinine (5 units/ml), and MgCI2 (10 mM). Total cell membranes (P100) and cytosol (S100) were obtained by a 100,000×g centrifugation step (30 min). Following resuspension of the P100 in 750 μl of homogenization buffer, both S100 and P100 received 75 μl of 10×immunoprecipitation buffer (100 mM Tris-HCl, pH=7.5, 1.5 M NaCl, 10% Triton X-100). Samples were frozen for 1 hr at −70° C. and then thawed. Insoluble material was removed by a 10 min 10,000×g spin and the clear supernatant was used for immunoprecipitation. Samples containing 500 μg protein of P100 and the equivalent amount of S100 protein, were incubated for 12 hr with 2 μg of Y13-259 antibodies coupled to agarose bends (Oncogene Science). The beads were then precipitated and washed four times with 1 ml of immunoprecipitation buffer, twice with 1 ml of 20 mM Tris-HCl, pH=7.6, and then resuspended in 20 μl of SDS-sample buffer. Proteins were then separated by 12.5% SDS-PAGE (mini gels) and blotted onto nitrocellulose paper. The paper was blocked with 10% skimmed milk in tris-buffered saline and then incubated for 7 hr with rabbit anti-Ras serum diluted 1:1000 with tris buffered saline containing 10 mg/ml bovine serum albumin and 0.05% tween-20 (anti-Ras antiserum was prepared by immunizing rabbits with recombinant human-Ha-Ras (Marom et al.). Immunoblots were then incubated for 1 hr with 1:5000 dilution of goat anti-rabbit IgG-horseradish peroxidase (HRP) conjugate (Sigma) and developed by exposing to ECL.
Here, EJ cells were plated at a density of 4×10^6 cells/10 cm dish. The plated cells were cultured for 3 hours and then received new media containing 0.1% DMSO with or without 25 μM FTS. The cells were further cultured for 2, 4, 12, or 24 hours before harvesting and fractionation into particulate and cytosolic fractions. Ras proteins were immunoprecipitated from the fractions, subjected to SDS-PAGE, immunoblotted and developed with ECL as described in the methods, supra. The density of the bands produced from the particulate fraction (FIG. 3A) and the cytosolic fraction (FIG. 3B) was measured with a scanning densitometer. The data obtained from the densitometric analysis are presented in FIG. 3C as the ratio of values of test (FTS treated) over control (DMSO only) cells. The mean values of three separate experiments are shown.
Referring to FIGS. 4A and 4B, the effect of FTS in dislodging Ras from EJ cell membranes was investigated for dose dependence. Here, Ras protein concentration was determined in the particulate fraction of EJ cells that were exposed to the indicated concentrations of FTS (0-50 μM) and AFC (50 μM) for 15 hours as detailed for FIG. 3, supra. The densitometric analysis of the immunoblot bands shown in FIG. 4A are presented in FIG. 4B as mean % of control of three experiments.

Ras = details: cited from earlier work
normal Ras in Rat1 cells = assay: Ras (total and particulate) in Rat1 cells; format: cell-based, rat
Description: In experiments where the total amount of Ras was estimated, the cells were homogenized as detailed above and samples of the total cell-homogenate (15 μg protein) were loaded onto the gel. For immunoblotting, we have also used the pan-Ras Ab (Calbiochem) at a 1:2000 dilution, and anti-mouse IgG-HRP at a 1:7500 dilution. To develop, the blots were exposed to ECL. The same immunoblotting procedure was also used in the cell-free system experiments. The effect of FTS on total Ras in Rat1 cells (Rat1 cells have normal rather than oncogenic Ras) was also examined using the same procedures and conditions as that used for EJ cells in FIGS. 5A & 5B. […] However, dislodging normal Ras in Rat1 cells required 50 μM FTS whereas the oncogenic Ras found in EJ cell is dislodged at lower concentrations of the drug (FIG. 5A). Thus, FTS may have some selectivity towards the activated forms of Ras. This may account for the fact that FTS is not toxic at doses that inhibit the growth of Ras dependent cells and tumors (see toxicology section below.)

[5] = FTS 5-50 μM; cited from earlier work
[6] = test system: G protein β (Gβ) in EJ cell membranes; assay: Immunoblotting of Gβ in EJ cell membranes; format: cell-based, rat; details: same conditions as for Ras detection
Description: The level of G protein β (Gβ) was determined in membranes of EJ cells that were grown in the absence and in the presence of FTS in the same conditions that were used for Ras detection. A sample of 25 μg membrane proteins were separated by SDS-PAGE (12.5%), and blotted to nitrocellulose paper. Immunoblots were performed by using rabbit anti Gβ antibodies (dilution of 1:1000) as a first antibody and goat anti rabbit IgG HRP (Sigma) as a second antibody (dilution of 1:5000). To develop, the blots were exposed to ECL.

[7] = test system: Erb B2 and Ha-Ras-transformed cells; details: cited from earlier work
[8] = Toxicity / cytotoxicity of FTS

CC(C)=CCC/C(C)=C/CC/C(C)=C/CSc1c(Cl)cccc1C(=O)O [3-CI-FTS]
EC50 (EJ cells; EJ cells): > 50 µM
Dislodging of Ras (% of control) in a cell free system (10 μM drug) [1]: 109 % of control
dislodging of Ras from isolated membrane ([1]; cell free): did not dislodge Ras

CC(C)=CCCC(C)=CCCC(C)=CCSc1cc(Cl)ccc1C(=O)O [4-Cl-FTS]
EC50 (EJ cells; EJ cells): 28 ± 3 µM
Dislodging of Ras (% of control) in a cell free system (10 μM drug) [1]: 85 % of control

CC(C)=CCC/C(C)=C/CC/C(C)=C/CSc1ccc(Cl)cc1C(=O)O [5-Cl-FTS]
EC50 (EJ cells; EJ cells): 8.5 ± 2.4 µM
Dislodging of Ras (% of control) in a cell free system (10 μM drug) [1]: 87 % of control

COC(=O)c1ccccc1SCC=C(C)CCC=C(C)CCC=C(C)C [FMTS, carboxymethyl FTS]
Inhibition of EJ cells Growth EC50 (μM) (EJ cells; EJ cells): Not active at 50 μM
Dislodging of Ras (% of control) in a cell free system (10 μM drug) [1]: 110 % of control
dislodging of Ras from isolated membrane ([1]; cell free): did not dislodge Ras

CC(C)=CCCC(C)=CCCC(C)=CCSc1ccccc1C(=O)O [FTS, Farnesylthiosalicylic acid]
EC50 (EJ cells; Rattus norvegicus, EJ): 7.5 ± 3.7 µM
EC50 [2]: 15 µM
effect on growth of v-raf or T-antigen transformed cells [3]: does not affect the growth
cytosolic Ras after exposure ([4]; FTS 25 μM, 2 to 6 hours after exposure, transient): significant increase in cytosolic Ras
decrease in the amount of particulate Ras versus control levels ([4]; FTS 25 μM, after 24 hours, EJ cells, densitometry, 3 experiments): 80%
concentration range that will produce maximal displacement of Ras ([4]; cell membranes): 10 to 50 µM
concentrations required to dislodge Ras from cell membranes ([4]; cell membranes): < 25 µM
EC50 ([4]; intact EJ cells, 15 hours, 0-50 μM, read-out: EC50 for dislodging Ras from EJ cell membranes (particulate Ras)): ~10 µM
Dislodging of Ras (% of control) in a cell free system (10 μM drug) [1]: 56 % of control
EC50 ([1]; cell free, 60 min at 37° C.): 10 to 15 µM
inhibition of farnesylation or methylation of Ras in intact cells (Ras): does not inhibit farnesylation or methylation of Ras
concentration required for dislodging normal Ras in Rat1 cells (normal Ras in Rat1 cells; particulate Ras, Rat1 cells): 50 µM
effect on total Ras in Rat1 cells (normal Ras in Rat1 cells; same conditions as EJ cells, dose response shifted to the right): significant decrease in Ras
cytotoxicity at growth-inhibiting concentrations [5]: without producing cytotoxicity
amount of Gβ associated with EJ cell membranes [6]: did not reduce the amount of Gβ
concentration range of dose-dependent growth inhibition [7]: 1-25 μm
toxicity at doses that inhibit the growth of Ras dependent cells and tumors [8]: not toxic

CC(C)=CCC/C(C)=C/CSc1ccccc1C(=O)O [GTS, geranyl thiosalicylic acid]
Inhibition of EJ cells Growth EC50 (μM) (EJ cells; EJ cells): Not active at 50 μM
Dislodging of Ras (% of control) in a cell free system (10 μM drug) [1]: 100 % of control
dislodging of Ras from isolated membrane ([1]; cell free): did not dislodge Ras
